How the values were obtained:
Test in all cases: Post-emergence efficacy, Method C
Format in all cases: in vivo
Conditions in all cases: Application Rate 400 g/Ha, evaluated at 21 days
[1] = system: Amaranthus palmeri (AMAPA)
Experimental: (§1) An “instant formulation”, known as the IF50, containing 50 g/L of the “technical” (i.e. unformulated) active ingredient was prepared by dissolving the active ingredient in a mixture of organic solvents and emulsifier, details of which are provided in the table. This IF50 was then mixed with a small, variable amount of acetone to aid dissolution, before addition of a 1% v/v aqueous solution of the adjuvant Empicol ESC70 3EO (Sodium lauryl ether sulphate) and 1% v/v Ammonium sulphate, as the aqueous diluent, to form an aqueous spray solution which contains a predetermined concentration of the active ingredient (which varies depending on the application rate of the active ingredient to the plants).
(§2) Composition of the mixture of organic solvents and emulsifier used as a base for the instant formulation.
(§3) This aqueous spray solution was then sprayed onto the plants after about 21 days' cultivation. The plants were grown from seeds sown in standard soil, placed in a glasshouse under controlled conditions (at 24/18° C., day/night; 14 hours light; 65% humidity). After spray application the plants were then grown on in a glasshouse under the same conditions and watered twice daily. The test was evaluated at 21 days (100=total damage to plant; 0=no damage to plant).
(§4) Ipomoea hederacea (IPOHE), Amaranthus palmeri (AMAPA), Lolium perenne (LOLPE), Eleusine indica (ELEIN), Echinochloa crus-galli (ECHCG), Conyza canadensis (ERICA)

[2] = system: Conyza canadensis (ERICA)
Experimental: as §1, §2, §3, §4

[3] = system: Echinochloa crus-galli (ECHCG)
Experimental: as §1, §2, §3, §4

[4] = system: Ipomoea hederacea (IPOHE)
Experimental: as §1, §2, §3, §4

[5] = system: Lolium perenne (LOLPE)
Experimental: as §1, §2, §3, §4

Cl.O=S(=O)([O-])CC[n+]1ccc(-c2ccncc2)cn1 [Compound A27]
Control of weed species after post-emergence application, AMAPA (100=total damage to plant; 0=no damage to plant) [1]: 77
Control of weed species after post-emergence application, ERICA (100=total damage to plant; 0=no damage to plant) [2]: 65
Control of weed species after post-emergence application, ECHCG (100=total damage to plant; 0=no damage to plant) [3]: 43
Control of weed species after post-emergence application, IPOHE (100=total damage to plant; 0=no damage to plant) [4]: 90
Control of weed species after post-emergence application, LOLPE (100=total damage to plant; 0=no damage to plant) [5]: 68

O=S(=O)([O-])C[n+]1ccc(-c2ncccn2)cn1 [Compound A3, (4-pyrimidin-2-ylpyridazin-1-ium-1-yl)methanesulfonate]
Control of weed species after post-emergence application, ECHCG (100=total damage to plant; 0=no damage to plant) [3]: 13

From US11618743B2, “Herbicidal compounds” (SYNGENTA PARTICIPATIONS AG, priority 2017, dated 2023)
